Patent publication US20080260722A1, “Method for High Efficiency Survival/Proliferation of Human Embyonic Stem Cells and Human Embryo Survival in Culture” (The Johns Hopkins University Johns Hopkins Technology …, priority 2004, published 2008)

How the values were obtained:
hES cells [1] = assay: low-density survival assay with individual neurotrophins on MEFs or Matrigel; assay type: cell-based, human; conditions: 500 cells/well on MEFs or Matrigel, 0.01-100 ng/ml, 4-5 days
Description: FIG. 4. Individual neurotrophins have dose-dependent effects on hES cell survival; a. Effect of NTs on hES cell survival at low-density on MEFs. hES cells were trypsinized and plated at low density (500 cells per well) on MEFs in 96-well plates in the presence of NT3, BDNF, NT4, NGF or hES medium lacking added growth factor; After 4-5 days, the colonies (comprised of approximately 7-11 cells) were fixed and stained for alkaline phosphatase; b. […] NTs (BDNF, NT4 and NT3) also have statistically significant differences between concentrations of 0.01-100 ng/ml at p<0.05; c. Phase contrast images (at 4×) of morphology of hES cell colonies observed on MEFs or Matrigel™ in the low-density survival assay.
Human ES cell lines H1 and H9 were cultured as described by Thornson and colleagues^15 in high glucose DMEM supplemented with L-glutanine, non-essential amino acids, serum replacement (Invitrogen) and 4 ng/ml basic Fibroblast growth factor (Invitrogen). Mouse embryo fibroblasts (MEFs) (Specialty Media). were plated at 5-7×10^6 cells/ml. To prepare single cell suspensions of hES cells, the cells were washed twice with PBS, then incubated in 0.05% trypsin/EDTA (InVitrogen) for 5 minutes at 37° C. The cells were triturated with a 5-ml pipette until a single cell suspension was obtained. Trypsin inhibitor (InVitrogen) was added and the cell suspension filtered through a […] (Fisher Scientific) to remove clumps and MEFs. For clonal survival assays, single hES cells were diluted to clonal density and plated into a well of a 96-well plate containing MEFs. For low-density survival assays, trypsinized cells were counted using a hemocytometer and 500 cells were plated in each well of 96-well plate containing MEFs or coated with Matrigel (BD Biosciences). To visualize hES colonies, cultures were fixed in 4% para-formaldehyde in PBS for 30 minutes, washed once in PBS, once in distilled H2O, then stained for alkaline phosphatase activity as described previously^25. Individual hES cells or hES cell colonies were counted manually on an inverted microscope. NGF, BDNF, NT3 and NT4 were purchased from Peprotech. The TRK inhibitors GW441756 (Sigma) and K252A (Calbiochem), PI-3K inhibitor, MAPK inhibitors, STAT3 inhibitor and control peptides (all from Calbiochem) were prepared according to the manufacturer's instructions. For the antibody blocking experiments, antibodies to NGF, NT3, NT4 and BDNF as well as a control antibody were obtained from Promega. Antibodies were added to culture medium at a concentration of 20 ug/ml. Following culture, the cultures were fixed and stained for alkaline phosphatase activity as described above. Each experiment consisted of at least four replicates per treatment and each experiment was repeated at least three times. […]

hES cells [2] = assay: low-density survival assay in NTs without bFGF with pathway inhibitors; assay type: cell-based, human; conditions: single cells at low density in NTs, no bFGF, increasing inhibitor concentrations
Method: FIG. 8. PI-3K activity is required for hES cell survival; a. […] NTs have differential effects on AKT and MEK1/2 phosphorylation; hES cells were grown in the presence or absence of NTs (but without bFGF) and cell lysates probed with antibodies to phospho-AKT or phospho-MEK1/2; in the absence of NTs, a weak phospho-AKT band is observed; upon stimulation of hES cells with NTs a stronger band is observed; the intensity of the bands were compared to the total level of AKT and to a loading control (Beta-tubulin); in contrast no change in the level of phospho-MEK1/2 was observed by comparison with the controls.
Human ES cell lines H1 and H9 were cultured as described by Thornson and colleagues^15 in high glucose DMEM supplemented with L-glutanine, non-essential amino acids, serum replacement (Invitrogen) and 4 ng/ml basic Fibroblast growth factor (Invitrogen). Mouse embryo fibroblasts (MEFs) (Specialty Media). were plated at 5-7×10^6 cells/ml. To prepare single cell suspensions of hES cells, the cells were washed twice with PBS, then incubated in 0.05% trypsin/EDTA (InVitrogen) for 5 minutes at 37° C. […] For low-density survival assays, trypsinized cells were counted using a hemocytometer and 500 cells were plated in each well of 96-well plate containing MEFs or coated with Matrigel (BD Biosciences). […] Individual hES cells or hES cell colonies were counted manually on an inverted microscope. […]

hES cells [3] = assay: low-density survival assay in MEF-CM with TRK inhibitors; assay type: cell-based, human; conditions: increasing inhibitor concentrations, versus DMSO vehicle
Method: TRK signaling and survival can be blocked by pharmacological inhibition; TRK inhibitors were added to hES cells plated with MEF-CM in the low-density survival assay; hES cells were exposed to increasing concentrations of a GW441756, K252A, or vehicle (DMSO).
Human ES cell lines H1 and H9 were cultured as described by Thornson and colleagues^15 in high glucose DMEM supplemented with L-glutanine, non-essential amino acids, serum replacement (Invitrogen) and 4 ng/ml basic Fibroblast growth factor (Invitrogen). Mouse embryo fibroblasts (MEFs) (Specialty Media). were plated at 5-7×10^6 cells/ml. To prepare single cell suspensions of hES cells, the cells were washed twice with PBS, then incubated in 0.05% trypsin/EDTA (InVitrogen) for 5 minutes at 37° C. The cells were triturated with a 5-ml pipette until a single cell suspension was obtained. […] For low-density survival assays, trypsinized cells were counted using a hemocytometer and 500 cells were plated in each well of 96-well plate containing MEFs or coated with Matrigel (BD Biosciences). […] Individual hES cells or hES cell colonies were counted manually on an inverted microscope. […]
To test this prediction, hES cell survival was measured using the low density survival assay in the presence or absence of two different TRK inhibitors, GW441756 and K252a^17-19.

TRKs = conditions: cited from earlier work

For nerve growth factors [NGF], the “effect on hES cell survival” value (hES cells [1]) was “slight increase in hES cell survival”.

With COc1cccc(-c2cc(=O)c3ccccc3o2)c1N [PD98059] the “effect on hES cell survival” value (hES cells [2]) was “no effect on hES cell survival”.

For Cn1cc(/C=C2\C(=O)Nc3cccnc32)c2ccccc21 [GW441756], the “effect on hES cell survival” value (hES cells [3]) is given as “statistically-significant and dose-dependent effects on hES cell survival” and the “selectivity for TRKs over many kinases including c-Src, VEGFR2, Raf and CDK1” value (TRKs) is given as 10-fold, or in some cases 100-fold.

With CS/C(N)=C(C#N)/C(C#N)=C(\N)SC [UO124] the “effect on hES cell survival” value (hES cells [2]) was “no effect on hES cell survival”.

For COC(=O)[C@@]1(O)C[C@H]2O[C@]1(C)n1c3ccccc3c3c4c(c5c6ccccc6n2c5c31)C(=O)NC4 [K252a], the “effect on hES cell survival” value (hES cells [3]) was “statistically-significant and dose-dependent effects on hES cell survival”.

B1: brain derived neurotrophic factor (protein, UniProt P23560 19-247, looked up)
Neurotrophic factor BDNF …: APMKEANIRGQGGLAYPGVRTHGTLESVNGPKAGSRGLTSLADTFEHVIEELLDEDQKVRPNEENNKDADLYTSRVMLSSQVPLEPPLLFLLEEYKNYLDAANMSMRVRRHSDPARRGELSVCDSISEWVTAADKKTAVDMSGGTVTVLEKVPVSKGQLKQYFYETKCNPMGYTKEGCRGIDKRHWNSQCRTTQSYVRALTMDSKKRIGWRFIRIDTSCVCTLTIKRGR
notes: TRK ligand, neurotrophin purchased from Peprotech
In the case of B1, the “effect on hES cell survival” value (hES cells [1]) is reported as “potent, dose dependent effects on hES cell survival”.

B2: neurotrophin 4 (protein, UniProt P34130 81-210, looked up)
Neurotrophin-4: GVSETAPASRRGELAVCDAVSGWVTDRRTAVDLRGREVEVLGEVPAAGGSPLRQYFFETRCKADNAEEGGPGAGGGGCRGVDRRHWVSECKAKQSYVRALTADAQGRVGWRWIRIDTACVCTLLSRTGRA
notes: as for B1
With B2 the “effect on hES cell survival” value (hES cells [1]) was “potent, dose dependent effects on hES cell survival”.

B3: neurotrophin 3 (protein, UniProt P20783 139-257, looked up)
Neurotrophin-3: YAEHKSHRGEYSVCDSESLWVTDKSSAIDIRGHQVTVLGEIKTGNSPVKQYFYETRCKEARPVKNGCRGIDDKHWNSQCKTSQTYVRALTSENNKLVGWRWIRIDTSCVCALSRKIGRT
notes: as for B1
For B3, the “effect on hES cell survival” value (hES cells [1]) was “potent, dose dependent effects on hES cell survival”.
